From patent US20070128217A1 (priority 2003, published 2007)

Legend:
[1] = tested on: antibodies in sera from SARS patients (sera 1a, 1b, 2, 6, 37, 62, London, SARS-yellow, SARS-green); format: binding, human; design: Binding of serum 6 to linear peptides of protein X1 of SARS-CoV Urbani / Binding of serum 37 to linear peptides of protein X1 of SARS-CoV Urbani / Binding of serum 6 to looped/cyclic peptide (PEPSCAN-ELISA) / Binding of serum 37 to looped/cyclic peptide (PEPSCAN-ELISA) / Binding of serum 37 to looped/cyclic peptides of protein X1 of SARS-CoV Urbani / Binding of serum 6 to linear peptides of protein X2 / Binding of serum 37 to linear peptides of protein X2 / Binding of serum 37 to looped/cyclic peptides of protein X2 of SARS-CoV Urbani / Binding of serum 6 to linear peptides of protein M of SARS-CoV Urbani / Binding of serum 37 to linear peptides of protein M of SARS-CoV Urbani / Binding of serum 6 to looped/cyclic peptides of protein M of SARS-CoV Urbani / Binding of serum 37 to looped/cyclic peptides of protein M of SARS-CoV Urbani / Binding of serum 6 to linear peptides of protein X3 of SARS-CoV Urbani / Binding of serum 37 to linear peptides of protein X3 of SARS-CoV Urbani / Binding of serum 37 to looped/cyclic peptides of protein X3 of SARS-CoV Urbani / Binding of serum 6 to linear peptides of protein X4 of SARS-CoV Urbani / Binding of serum 37 to linear peptides of protein X4 of SARS-CoV Urbani / Binding of serum 37 to looped/cyclic peptides of protein X4 of SARS-CoV Urbani / Binding of serum 6 to linear peptides of protein X5 of SARS-CoV Urbani / Binding of serum 37 to linear peptides of protein X5 of SARS-CoV Urbani / Binding of serum 37 to looped/cyclic peptides of protein X5 of SARS-CoV Urbani / Binding of serum 6 to linear peptides of protein N of SARS-CoV Urbani / Binding of serum 37 to linear peptides of protein N of SARS-CoV Urbani / Binding of serum 6 to linear peptide (PEPSCAN-ELISA) / Binding of serum 1a to looped/cyclic peptides of protein N of SARS-CoV Urbani / Binding of serum 1b to looped/cyclic peptides of protein N of SARS-CoV Urbani / Binding of serum 2 to looped/cyclic peptides of protein N of SARS-CoV Urbani / Binding of serum 6 to looped/cyclic peptides of protein N of SARS-CoV Urbani / Binding of serum 37 to looped/cyclic peptides of protein N of SARS-CoV Urbani / Binding of serum 62 to looped/cyclic peptides of protein N of SARS-CoV Urbani / Binding of serum London to looped/cyclic peptides of protein N of SARS-CoV Urbani / Binding of serum SARS-green to looped/cyclic peptides of protein N of SARS-CoV Urbani: unit not given here
[2] = tested on: control sera (pooled serum of ten healthy LUMC hospital workers; commercial negative donor pooled serum from the Dutch bloodbank); format: binding, human; design: Binding of Control serum LUMC to linear peptides / Binding of Control serum Blood-bank to linear peptides / Binding of Control serum LUMC to looped peptides / Binding of Control Serum Blood-Bank to Looped peptides / Binding of Control serum LUMC to linear peptides of the protein M of SARS-CoV Urbani / Binding of Control serum Blood-bank to linear peptides of the protein M of SARS-CoV Urbani / Binding of Control serum LUMC to looped peptides of the protein M of SARS-CoV Urbani / Binding of Control Serum Blood-Bank to Looped peptides of the protein M of SARS-CoV Urbani: unit not given here
[3] = tested on: rabbit serum obtained by immunizing a rabbit with the SARS-CoV strain Frankfurt 1; format: binding; design: Binding of a rabbit serum to linear peptides / Binding of a rabbit serum to looped peptides / Rabbit serum linear peptides / Rabbit serum looped peptides / Binding of a rabbit serum to linear peptides of protein N of SARS-CoV Urbani (Rabbit serum linear peptides) / Binding of a rabbit serum to looped/cyclic peptides of protein N of SARS-CoV Urbani (Rabbit serum looped peptides): unit not given here

HLVDFQVTIAEILII
Binding of serum 1a to linear peptides of protein X3 of SARS-CoV Urbani [1]: 0.8
Binding of serum 1a to looped/cyclic peptides of protein X3 of SARS-CoV Urbani [1]: 0.7
Binding of serum 1b to linear peptides of protein X3 of SARS-CoV Urbani [1]: 0.6
Binding of serum 1b to looped/cyclic peptides of protein X3 of SARS-CoV Urbani [1]: 0.4
Binding of serum 2 to linear peptides of protein X3 of SARS-CoV Urbani [1]: 0.7
Binding of serum 2 to looped/cyclic peptides of protein X3 of SARS-CoV Urbani [1]: 0.6
Binding of serum 6 to linear peptides of protein X3 of SARS-CoV Urbani [1]: 0.5
Binding of serum 6 to looped/cyclic peptides of protein X3 of SARS-CoV Urbani [1]: 0.4
Binding of serum 37 to linear peptides of protein X3 of SARS-CoV Urbani [1]: 0.7
Binding of serum 37 to looped/cyclic peptides of protein X3 of SARS-CoV Urbani [1]: 0.6
Binding of serum 62 to linear peptides of protein X3 of SARS-CoV Urbani [1]: 0.6
Binding of serum 62 to looped/cyclic peptides of protein X3 of SARS-CoV Urbani [1]: 0.7
Binding of serum London to linear peptides of protein X3 of SARS-CoV Urbani [1]: 0.6
Binding of serum London to looped/cyclic peptides of protein X3 of SARS-CoV Urbani [1]: 0.2
Binding of serum SARS-green to linear peptides of protein X3 of SARS-CoV Urbani [1]: 0.4
Binding of serum SARS-green to looped/cyclic peptides of protein X3 of SARS-CoV Urbani [1]: 0.2
Binding of serum SARS-yellow to linear peptides of protein X3 of SARS-CoV Urbani [1]: 0.5
Binding of serum SARS-yellow to looped/cyclic peptides of protein X3 of SARS-CoV Urbani [1]: 0.7
Binding of Control Serum Blood-Bank to Looped peptides of the protein X3 of SARS-CoV Urbani [2]: 0.9
Binding of Control serum Blood-bank to linear peptides of the protein X3 of SARS-CoV Urbani [2]: 0.8
Binding of Control serum LUMC to linear peptides of the protein X3 of SARS-CoV Urbani [2]: 0.7
Binding of Control serum LUMC to looped peptides of the protein X3 of SARS-CoV Urbani [2]: 0.7
Rabbit serum linear peptides [3]: 0.3
Rabbit serum looped peptides [3]: 0.3

HRMCKYTQSTALQEL
Binding of serum 1a to linear peptides of protein X2 [1]: 0.9
Binding of serum 1a to looped/cyclic peptides of protein X2 of SARS-CoV Urbani [1]: 0.6
Binding of serum 1b to linear peptides of protein X2 [1]: 0.8
Binding of serum 1b to looped/cyclic peptides of protein X2 of SARS-CoV Urbani [1]: 0.6
Binding of serum 2 to linear peptides of protein X2 [1]: 0.5
Binding of serum 2 to looped/cyclic peptides of protein X2 of SARS-CoV Urbani [1]: 0.4
Binding of serum 6 to linear peptides of protein X2 [1]: 0.5
Binding of serum 6 to looped/cyclic peptides of protein X2 of SARS-CoV Urbani [1]: 1.0
Binding of serum 37 to linear peptides of protein X2 [1]: 0.8
Binding of serum 37 to looped/cyclic peptides of protein X2 of SARS-CoV Urbani [1]: 0.5
Binding of serum 62 to linear peptides of protein X2 [1]: 0.8
Binding of serum 62 to looped/cyclic peptides of protein X2 of SARS-CoV Urbani [1]: 0.6
Binding of serum London to linear peptides of protein X2 [1]: 0.5
Binding of serum London to looped/cyclic peptides of protein X2 of SARS-CoV Urbani [1]: 1.5
Binding of serum SARS-green to linear peptides of protein X2 [1]: 0.8
Binding of serum SARS-green to looped/cyclic peptides of protein X2 of SARS-CoV Urbani [1]: 0.5
Binding of serum SARS-yellow to linear peptides of protein X2 [1]: 0.8
Binding of serum SARS-yellow to looped/cyclic peptides of protein X2 of SARS-CoV Urbani [1]: 0.5
Binding of Control Serum Blood-Bank to Looped peptides [2]: 0.8
Binding of Control serum Blood-bank to linear peptides [2]: 0.9
Binding of Control serum LUMC to linear peptides [2]: 0.7
Binding of Control serum LUMC to looped peptides [2]: 0.6
Binding of a rabbit serum to linear peptides [3]: 0.3
Binding of a rabbit serum to looped peptides [3]: 0.4

HSSSLTSLLKTHRMC
Binding of serum 1a to linear peptides of protein X2 [1]: 0.6
Binding of serum 1a to looped/cyclic peptides of protein X2 of SARS-CoV Urbani [1]: 0.4
Binding of serum 1b to linear peptides of protein X2 [1]: 0.5
Binding of serum 1b to looped/cyclic peptides of protein X2 of SARS-CoV Urbani [1]: 0.4
Binding of serum 2 to linear peptides of protein X2 [1]: 0.3
Binding of serum 2 to looped/cyclic peptides of protein X2 of SARS-CoV Urbani [1]: 0.3
Binding of serum 6 to linear peptides of protein X2 [1]: 0.5
Binding of serum 6 to looped/cyclic peptides of protein X2 of SARS-CoV Urbani [1]: 0.2
Binding of serum 37 to linear peptides of protein X2 [1]: 0.5
Binding of serum 37 to looped/cyclic peptides of protein X2 of SARS-CoV Urbani [1]: 0.3
Binding of serum 62 to linear peptides of protein X2 [1]: 0.6
Binding of serum 62 to looped/cyclic peptides of protein X2 of SARS-CoV Urbani [1]: 0.4
Binding of serum London to linear peptides of protein X2 [1]: 0.5
Binding of serum London to looped/cyclic peptides of protein X2 of SARS-CoV Urbani [1]: 0.2
Binding of serum SARS-green to linear peptides of protein X2 [1]: 0.5
Binding of serum SARS-green to looped/cyclic peptides of protein X2 of SARS-CoV Urbani [1]: 0.3
Binding of serum SARS-yellow to linear peptides of protein X2 [1]: 0.4
Binding of serum SARS-yellow to looped/cyclic peptides of protein X2 of SARS-CoV Urbani [1]: 0.4
Binding of Control Serum Blood-Bank to Looped peptides [2]: 0.5
Binding of Control serum Blood-bank to linear peptides [2]: 0.8
Binding of Control serum LUMC to linear peptides [2]: 0.4
Binding of Control serum LUMC to looped peptides [2]: 0.5
Binding of a rabbit serum to linear peptides [3]: 0.2
Binding of a rabbit serum to looped peptides [3]: 0.5

HTIDGSSGVANPAMD
Binding of serum 1a to linear peptides of protein X1 of SARS-CoV Urbani [1]: 0.7
Binding of serum 1a to looped/cyclic peptides of protein X1 of SARS-CoV Urbani [1]: 0.3
Binding of serum 1b to linear peptides of protein X1 of SARS-CoV Urbani [1]: 0.7
Binding of serum 1b to looped/cyclic peptides of protein X1 of SARS-CoV Urbani [1]: 0.2
Binding of serum 2 to linear peptides of protein X1 of SARS-CoV Urbani [1]: 0.5
Binding of serum 2 to looped/cyclic peptides of protein X1 of SARS-CoV Urbani [1]: 0.1
Binding of serum 6 to linear peptides of protein X1 of SARS-CoV Urbani [1]: 0.5
Binding of serum 6 to looped/cyclic peptides of protein X1 of SARS-CoV Urbani [1]: 0.1
Binding of serum 37 to linear peptides of protein X1 of SARS-CoV Urbani [1]: 0.7
Binding of serum 37 to looped/cyclic peptides of protein X1 of SARS-CoV Urbani [1]: 0.3
Binding of serum 62 to linear peptides of protein X1 of SARS-CoV Urbani [1]: 0.7
Binding of serum 62 to looped/cyclic peptides of protein X1 of SARS-CoV Urbani [1]: 0.2
Binding of serum London to linear peptides of protein X1 of SARS-CoV Urbani [1]: 0.3
Binding of serum London to looped/cyclic peptides of protein X1 of SARS-CoV Urbani [1]: 0.1
Binding of serum SARS-green to linear peptides of protein X1 of SARS-CoV Urbani [1]: 0.6
Binding of serum SARS-green to looped/cyclic peptides of protein X1 of SARS-CoV Urbani [1]: 0.1
Binding of serum SARS-yellow to linear peptides of protein X1 of SARS-CoV Urbani [1]: 0.4
Binding of serum SARS-yellow to looped/cyclic peptides of protein X1 of SARS-CoV Urbani [1]: 0.1
Binding of Control Serum Blood-Bank to Looped peptides [2]: 0.3
Binding of Control serum Blood-bank to linear peptides [2]: 0.4
Binding of Control serum LUMC to linear peptides [2]: 0.5
Binding of Control serum LUMC to looped peptides [2]: 0.2
Binding of a rabbit serum to linear peptides [3]: 0.1
Binding of a rabbit serum to looped peptides [3]: 0.4
